Key:
[1] = tested on: normotensive nephrectomised cats with chronic renal failure; test: GFR in normotensive nephrectomised cats with chronic renal failure (Example 1); type: in vivo, cat; conditions: amlodipine besylate once daily at 0.125 mg/kg; after 35 days; no change in placebo group
Experimental: In this experiment, comparative groups of normotensive nephrectomised cats with chronic renal failure had their GFR measured. […] After 35 days the GFR was measured again. There was no change in the placebo group, but the GFR had increased by an average of ca. 28% for the amlodipine-treated group.

[2] = tested on: cats with chronic renal failure; test: GFR from plasma clearance of iohexol in client-owned normotensive cats with spontaneous chronic renal failure (Experiment 2); type: in vivo, cat
Description: The data in the Table below were collected from client-owned, pet cats that had been diagnosed with spontaneous chronic renal failure (chronic renal insufficiency). These cats were presented by owners/clients to veterinary practices for evaluation of general health, kidney function, and systolic blood pressure.
Chronic renal failure is generally considered an irreversible and progressive disease in cats. […] Cats were considered normotensive as defined by systolic arterial blood pressure less than 160 mm Hg prior to the onset of treatment.
Renal function was assessed by determining glomerular filtration rate (GFR). GFR was estimated from plasma clearance of the exogenous marker, iohexol, approximately 7 days prior to the onset of treatment (day—7) and on approximately days 28, 56, 112, and 224 following onset of treatment.

Compound: CCOC(=O)C1=C(COCCN)NC(C)=C(C(=O)OC)C1c1ccccc1Cl (stereo not drawn) [Amlodipine, amlodipine besylate]
- increase in GFR (average) [1]: ca. 28%
- GFR increase on average between day −7 and day 224 ([2]; 0.125 to 0.25 mg/kg once daily oral, placebo declined 17%): 9%
- effect on decline in renal function (in words) ([2]; 0.125 to 0.25 mg/kg/day orally): prevents the decline in function associated with the progression of chronic renal failure in cats
